Laboratory results: patent US20220322673A1, “Novel Agrochemical Combinations” (UPL LIMITED, priority 2019, published 2022)
Like-named read-outs stand apart in the source and are kept apart here.

Experiments:
Assay type in all cases: in vivo
[1] = system: Corn FAW (Spodoptera frugiperda); conditions: for Percent control (%) A01: A01 = 1 day after first spray; for Percent control (%) A14: A14 = 14 days after 1st spray; for Percent control (%) B03: B03 = 3 days after 2nd spray; for Percent control (%) B07: B07 (after 2nd spray); for Percent control (%) B10: B10 (after 2nd spray); for Percent control (%) B21: B21 (after 2nd spray)
Excerpt: Application method: Two applications (application A and B) within an interval of 14 days. A01=1 day after first spray, A14=14 days after 1st spray, B03=3 days after 2nd spray.

[2] = system: Okra Aphids (Aphis gossypii); conditions: for Percent control (%) of Okra Aphids, Nymphs + Adults, A01: A01 = 1 day after first spray; for Percent control (%) of Okra Aphids, Nymphs + Adults, B03: B03 = 3 days after 2nd spray; for Percent control (%) of Okra Aphids, Nymphs + Adults, B07: B07 (after 2nd spray); for Percent control (%) of Okra Aphids, Nymphs + Adults, B10: B10 (after 2nd spray); for Percent control (%) of Okra Aphids, Nymphs + Adults, C03: C03 = 3 days after third spray; for Percent control (%) of Okra Aphids, Nymphs + Adults, C10: C10 (after third spray)
Excerpt: (§1) In this evaluation, feeding damage & insect population on Okra Leaves before and after sprays is averaged and analyzed for the test of significance. Application method: Three applications (application A, B and C) within an interval of 14 days.

[3] = system: Okra Jassids (Amrasca bigutulla bigutulla); conditions: for Percent control (%) of Okra Jassids, Nymphs + Adults, A01: A01 = 1 day after first spray; for Percent control (%) of Okra Jassids, Nymphs + Adults, A10: A10 (after 1st spray); for Percent control (%) of Okra Jassids, Nymphs + Adults, B03: B03 = 3 days after 2nd spray; for Percent control (%) of Okra Jassids, Nymphs + Adults, B07: B07 (after 2nd spray); for Percent control (%) of Okra Jassids, Nymphs + Adults, B10: B10 (after 2nd spray); for Percent control (%) of Okra Jassids, Nymphs + Adults, B14: B14 (after 2nd spray); for Percent control (%) of Okra Jassids, Nymphs + Adults, C03: C03 = 3 days after third spray; for Percent control (%) of Okra Jassids, Nymphs + Adults, C10: C10 (after third spray)
Excerpt: as §1

[4] = 25% reduced dose of insecticide, gm a.i./ha: OSA 25, CTPR 22.5, Acephate 730, Novaluron 56, Novaluron+Lambda cyhalothrin 67.5, Novaluron+Emamectin 93.5
[5] = doses gm a.i./ha: OSA 25, CTPR 30, Acephate 970, Novaluron 75, Novaluron+Lambda cyhalothrin 90, Novaluron+Emamectin 125
[6] = doses gm a.i./ha: OSA 25, Flonicamid 100, Acephate+Imidacloprid 520, Flonicamid+Fipronil 100+50, Imidacloprid 24.5, Acetamiprid 15
[7] = reduced insecticide dose, gm a.i./ha: OSA 25, Flonicamid (Ulala) 75, Acephate+Imidacloprid 390, Flonicamid+Fipronil 75+37.5, Imidacloprid 18.3, Acetamiprid 11.2
[8] = 25% reduced dose rate, gm a.i./ha: OSA 25, Flonicamid 75, Acephate+Imidacloprid 390, Flonicamid+Fipronil 75+37.5, Imidacloprid 18.3, Acetamiprid 11.2

O=C(NC(=O)c1c(F)cccc1F)Nc1ccc(OC(F)(F)C(F)OC(F)(F)F)c(Cl)c1 (racemic) [Novaluron, (±)-1-[3-chloro-4-(1,1,2-trifluoro-2-trifluoro-methoxyethoxy)phenyl]-3-(2,6-difluorobenzoyl)urea]
Percent control (%) A01 [1, 4]: 59.3% | Percent control (%) A01 [1, 5]: 60.5% | Percent control (%) A14 [1, 4]: 58.7% | Percent control (%) A14 [1, 5]: 72.5% | Percent control (%) B03 [1, 4]: 68.9% | Percent control (%) B03 [1, 5]: 79.9% | Percent control (%) B07 [1, 4]: 70.1% | Percent control (%) B07 [1, 5]: 88.8% | Percent control (%) B10 [1, 4]: 74.6% | Percent control (%) B10 [1, 5]: 88.9% | Percent control (%) B21 [1, 4]: 73.9% | Percent control (%) B21 [1, 5]: 84.7%

COP(=O)(NC(C)=O)SC (stereo not drawn) [Acephate]
Percent control (%) A01 [1, 4]: 46.8% | Percent control (%) A01 [1, 5]: 58.1% | Percent control (%) A14 [1, 4]: 50.3% | Percent control (%) A14 [1, 5]: 69.7% | Percent control (%) B03 [1, 4]: 62.1% | Percent control (%) B03 [1, 5]: 76.4% | Percent control (%) B07 [1, 4]: 63.9% | Percent control (%) B07 [1, 5]: 80.5% | Percent control (%) B10 [1, 4]: 64.1% | Percent control (%) B10 [1, 5]: 83.2% | Percent control (%) B21 [1, 4]: 61.6% | Percent control (%) B21 [1, 5]: 80.3%

CNC(=O)c1cc(Cl)cc(C)c1NC(=O)c1cc(Br)nn1-c1ncccc1Cl [CTPR, Chlorantraniliprole]
Percent control (%) A01 [1, 4]: 57.1% | Percent control (%) A01 [1, 5]: 67.6% | Percent control (%) A14 [1, 4]: 66.8% | Percent control (%) A14 [1, 5]: 75.2% | Percent control (%) B03 [1, 4]: 75% | Percent control (%) B03 [1, 5]: 79.9% | Percent control (%) B07 [1, 4]: 77.2% | Percent control (%) B07 [1, 5]: 86.8% | Percent control (%) B10 [1, 4]: 76.2% | Percent control (%) B10 [1, 5]: 88.9% | Percent control (%) B21 [1, 4]: 74.6% | Percent control (%) B21 [1, 5]: 87.0%

O=[N+]([O-])NC1=NCCN1Cc1ccc(Cl)nc1 [Imidacloprid]
Percent control (%) of Okra Aphids, Nymphs + Adults, A01 [2, 6]: 66.9% | Percent control (%) of Okra Aphids, Nymphs + Adults, A01 [2, 7]: 62.7% | Percent control (%) of Okra Aphids, Nymphs + Adults, A10 ([2]; A10 (after 1st spray), doses gm a.i./ha: OSA 25, Flonicamid 100, Acephate+Imidacloprid 520, Flonicamid+Fipronil 100+50, Imidacloprid 24.5, Acetamiprid 15): 82% | Percent control (%) of Okra Aphids, Nymphs + Adults, A14 ([2]; A14 = 14 days after 1st spray, reduced insecticide dose, gm a.i./ha: OSA 25, Flonicamid (Ulala) 75, Acephate+Imidacloprid 390, Flonicamid+Fipronil 75+37.5, Imidacloprid 18.3, Acetamiprid 11.2): 64.3% | Percent control (%) of Okra Aphids, Nymphs + Adults, B03 [2, 6]: 80.7% | Percent control (%) of Okra Aphids, Nymphs + Adults, B03 [2, 7]: 74.4% | Percent control (%) of Okra Aphids, Nymphs + Adults, B07 [2, 6]: 82.7% | Percent control (%) of Okra Aphids, Nymphs + Adults, B07 [2, 7]: 77.2% | Percent control (%) of Okra Aphids, Nymphs + Adults, B10 [2, 6]: 82.2% | Percent control (%) of Okra Aphids, Nymphs + Adults, B10 [2, 7]: 79.1% | Percent control (%) of Okra Aphids, Nymphs + Adults, C03 [2, 6]: 81.3% | Percent control (%) of Okra Aphids, Nymphs + Adults, C03 [2, 7]: 75.4% | Percent control (%) of Okra Aphids, Nymphs + Adults, C10 [2, 6]: 82.6% | Percent control (%) of Okra Aphids, Nymphs + Adults, C10 [2, 7]: 78% | Percent control (%) of Okra Jassids, Nymphs + Adults, A01 [3, 8]: 56% | Percent control (%) of Okra Jassids, Nymphs + Adults, A01 [3, 6]: 59.9% | Percent control (%) of Okra Jassids, Nymphs + Adults, A10 [3, 8]: 59.1% | Percent control (%) of Okra Jassids, Nymphs + Adults, A10 [3, 6]: 64.6% | Percent control (%) of Okra Jassids, Nymphs + Adults, B03 [3, 8]: 61.5% | Percent control (%) of Okra Jassids, Nymphs + Adults, B03 [3, 6]: 68.5% | Percent control (%) of Okra Jassids, Nymphs + Adults, B07 [3, 8]: 62.5% | Percent control (%) of Okra Jassids, Nymphs + Adults, B07 [3, 6]: 71.7% | Percent control (%) of Okra Jassids, Nymphs + Adults, B10 [3, 8]: 63.5% | Percent control (%) of Okra Jassids, Nymphs + Adults, B10 [3, 6]: 70.5% | Percent control (%) of Okra Jassids, Nymphs + Adults, B14 [3, 8]: 62.4% | Percent control (%) of Okra Jassids, Nymphs + Adults, B14 [3, 6]: 66.2% | Percent control (%) of Okra Jassids, Nymphs + Adults, C03 [3, 8]: 64.6% | Percent control (%) of Okra Jassids, Nymphs + Adults, C03 [3, 6]: 68.0% | Percent control (%) of Okra Jassids, Nymphs + Adults, C10 [3, 8]: 66.1% | Percent control (%) of Okra Jassids, Nymphs + Adults, C10 [3, 6]: 73.0%
